# Data taken from patent publication EP4775569A1, “3CL PROTEASE INHIBITOR FOR TREATING OR PREVENTING CORONAVIRUS INFECTIONS AND USE THEREOF” (The Global Health Drug Discovery Institute, priority 2023, dated 2025).
# Where two headings read alike, the source gives them in different places.
# What was measured:
# [1] = tested on: SARS-CoV-2; assay: SARS-CoV-2/Hela-ACE Test; assay type: cell-based
# [2] = Toxicity Testing in Uninfected Cells; assay type: cell-based; conditions: human, Cell-Titer Glo cell viability
# Protocol: Toxicity Testing in Uninfected Cells
# The compound was transferred to a 1536-well plate (Corning No. 9006BC), and then Hela-ACE cells were added (cell density: 600 cells/5 microliter of medium MEM with 2% FBS). After the assay plate was incubated at 37°C in 5% CO2 for 48 hours, cell viability was tested. 2 µL of 50% Cell-Titer Glo (Promega No G7573) was diluted in water and added to a cell assay plate, and then a value on EnVision Plate Reader (Perkin Elmer) was read.
# [3] = target: SARS-CoV-2 3CLpro (Severe acute respiratory syndrome coronavirus 2, UniProt P0DTD1); assay: Enzyme Activity Test; assay type: biochemical
# [4] = Severe acute respiratory syndrome coronavirus 2, Hela-ACE cells infected with SARS-CoV-2 (USA-WA1/2020), MOI 0.75-1, 48 hours, read-out: Hela ACE2-CoV-2 EC50
# [5] = uninfected Hela-ACE (HeLa ACE2) cells
SMILES,"EC50 [1, 4] [µM]","CC50 at 48 h [2, 5] [µM]",IC50 [3] [µM],"EC50 ([1]; Severe acute respiratory syndrome coronavirus 2, HeLa, 48 h, read-out: Hela ACE2-CoV-2 EC50 (µM)) [µM]","CC50 at 48 h ([2]; hela-ace2 cells, uninfected Hela-ACE cells) [µM]"
O=C1CCN(c2cc(Cl)cc(OCC(F)(F)F)c2)C(=O)N1c1cncc2ccccc12 [Example 2],0.03,> 99,,,
O=C1CCN(c2cc(Cl)cc(OCC3CC3)c2)C(=O)N1c1cncc2ccccc12 [Example 3],0.064,73.4,,,
O=C1CCN(c2cc(Cl)cc(OCC3CC(F)(F)C3)c2)C(=O)N1c1cncc2ccccc12 [Example 5],0.074,> 99,,,
O=C1CCN(c2cc(Cl)cc(N3CC4(COC4)C3)c2)C(=O)N1c1cncc2ccccc12 [Example 23],0.035,> 99,,,
O=C1N(c2cc(Cl)cc(OCC(F)(F)F)c2)CC2(CC2)C(=O)N1c1cncc2ccccc12 [Example 33],0.087,> 99,,,
Cc1cncc(N2C(=O)CCN(c3cc(Cl)cc(OCC(F)(F)F)c3)C2=O)c1C [Example 47],,,0.055,,
Cc1ccc2cncc(N3C(=O)CCN(c4cc(Cl)cc(OCC(F)(F)F)c4)C3=O)c2c1 [Example 48],,,0.05,0.052,> 99
O=C1CCN(c2cc(Cl)cc(OCC(F)(F)F)c2)C(=O)N1c1cncc2ccc(F)cc12 [Example 49],,,0.043,,
O=C1CCN(c2cc(F)c(Cl)c(OCC(F)(F)F)c2)C(=O)N1c1cncc2ccccc12 [Example 55],0.072,74,,,
